Measurements as given in a melting point compilation (Tetko et al.; mined from patent text by program, amines drawn as free bases though some values may be those of a salt).

Row | melting point | Compound
1 | 141 to 142 °C | CC(=NN(C)c1ccc(C(F)(F)F)cc1)C(=O)NCc1ccc(Cl)nc1
2 | 128 to 130 °C | COc1cc(CO)c2oc(-c3ccc(OC)c(F)c3)cc2c1
3 | > 250 °C | CSc1nc(N2CCc3ccccc3CC2)c(C#N)c(=O)[nH]1
4 | 103 to 107 °C | O=C(Nc1ccc(N2CCNCC2)c(C(F)(F)F)c1)c1ccc(F)c(OCc2cncc3ccccc23)c1
5 | 156 to 157 °C | CC(C)(C)CN1C(=O)C(=O)N(c2ccc(F)cc2F)C1=S
6 | 164 to 165 °C | CCC1(Cl)Cc2cc(OC(C)(C)C(=O)O)c(Cl)c(Cl)c2C1=O (stereo not given)
7 | 185 °C | CCn1c(=O)c2c(nc(/C=C/c3ccc(OCc4ccccc4)cc3)n2C)n(CC)c1=O
8 | 112 to 113 °C | Cn1nnnc1SCC(=O)C12CC3CC(CC(C3)C1)C2
9 | 99 to 101 °C | CCCc1c(O)ccc2oc(C(=O)OCC)cc12
10 | 279 to 280 °C | COc1ccccc1-c1cc(NC(=O)C2CCNCC2)ncn1
11 | 120 to 123 °C | COc1ccc(CCCC(=O)O)c(Cl)c1Cl
12 | 180 to 182 °C | Cc1cc(C)cc(-c2cc3cnc(N)nc3nc2NC(=O)NC(C)(C)C)c1
13 | 52 to 53 °C | CCc1nc(-c2ccc(OCCCN3CCOCC3)cc2)no1
14 | 67 to 68 °C | CCOC(=O)C(Br)=C(Br)c1ccc(Cl)cc1
15 | 207 to 208 °C | CC1(C)OC(=O)N(c2ccc(F)c(F)c2)c2ccccc21
16 | 82 to 83 °C | CS(=O)(=O)OCCCCc1ccc(OCc2coc(/C=C/c3ccccc3)n2)cc1
17 | 57 to 61 °C | ClCc1cnc(SCc2ccccc2)s1
18 | 112 to 114 °C | Cn1nc(C(F)(F)F)c(CS(=O)C2=NOC(C)(C)C2)c1OC(F)F (stereo not given)
19 | 88 to 90 °C | O=c1ccsn1Cc1ccc(Cl)cc1
20 | 122 to 127 °C | C=CCn1c(-c2cccnc2)nn(CN2CCN(c3cccc4c3OCCO4)CC2)c1=S
21 | 118 to 120 °C | COC(=O)c1ccc(N)cc1O
22 | 85 to 86 °C | COC(=O)CS(=O)(=O)CCCC=C1SC=CS1
23 | 61 to 63 °C | CCC(=O)NCCC1=CCc2ccc(OC)cc21
24 | 89 to 92 °C | CCCOC(=O)C(OC)C(=O)Nc1cc(Cl)cc(Cl)c1 (stereo not given)

Row | melting point | Compound
25 | 58 to 59 °C | CCN(CC)CC1=Cc2ccc(Cl)cc2S1(=O)=O
26 | 105 °C | CC#CCOc1ccc(S(=O)(=O)C2(C(=O)NO)CCN(C(C)C)CC2)cc1
27 | 62 to 64.6 °C | C=CCCCCCCCCC(=O)N1CC[C@H]2[C@H]1[C@@H](CCC)C(=O)N2S(C)(=O)=O (relative stereo)
28 | 197 °C | OC1CSC(Oc2ccnc(-c3cccnc3)c2)C(O)C1O (stereo not given)
29 | 118 to 120 °C | CCOC(=O)COc1cc(C(C)C)c(NC(=O)CN2CCN(CCSc3nc4ccccc4o3)CC2)c(C(C)C)c1
30 | 120 °C | CCS(=O)(=O)CC(=O)c1cc(C(C)(C)C)c(O)c(C(C)(C)C)c1
31 | 192 to 197 °C | CS(=O)(=O)Nc1cccc(Nc2nc(N3CCC[C@H]3CO)c3nc[nH]c3n2)c1
32 | 99 to 100 °C | C[C@@H]1C[C@H](I)[C@@H]2C[C@H]1C(=O)O2
33 | 78 to 86.5 °C | C[Si](C)(C)N1CCCCCN([Si](C)(C)C)CCN([Si](C)(C)C)CC1
34 | 165 to 167 °C | CCCS(=O)(=O)Nc1nc(CN2CCN(C(c3ccccc3)c3ccccc3)CC2)cs1
35 | 191 to 199 °C | COc1cc2sc(C(=O)Cl)c(Cl)c2cc1OC
36 | 305 to 307 °C | CC(C)c1nc2c([nH]1)c(=O)[nH]c(=O)n2Cc1ccncc1
37 | 56 to 58 °C | CNn1cccc1C(=O)c1ccccc1Cl
38 | 228 to 230 °C | CCOC(=O)c1cn(C2CC2)c2cc(NCCO)c(F)cc2c1=O
39 | 256 to 260 °C | C=Cn1cc(C(=O)O)c(=O)c2cc(F)c(N3CCNCC3)nc21
40 | 121 to 140 °C | CC1CON2C(=O)c3cc(Cl)ccc3OC2C1 (stereo not given)
41 | 260 °C | CCCCc1nc(O)c(CC(=O)O)c(=O)n1Cc1ccc(C(=O)O)cc1
42 | 140 to 141 °C | CCOC(=O)c1cc2cc(Oc3ccc(S(C)(=O)=O)nc3)cc(CC)c2[nH]1
43 | 149 to 151 °C | CN(C)C(=O)C(C)(C)c1cn2nc(Cl)ccc2n1
44 | 199 to 200 °C | Cc1nn(-c2ccccn2)c2[nH]c3ccccc3c(=O)c12
45 | 49 to 51 °C | Cc1ccc(OCCO)cn1
46 | 148 °C | O=c1c2ccccc2c(-c2ccccc2)cn1CC1CO1 (stereo not given)
47 | 167 to 168 °C | COC(=O)C(=CC=Cc1cc([N+](=O)[O-])ccc1Cl)C(=O)OC
48 | 108 °C | CCC(=O)Oc1cc(OC)cc(OC)c1C(=O)C=Cc1cccn1C

The remaining lines, values behind:

Row | Compound | melting point
49 | CC(C)[C@H](NC(=O)OCc1ccccc1)C(=O)NC(Cc1ccccc1)C(O)C(Cc1ccccc1)NC(=O)[C@@H](NC(=O)OCc1ccccc1)C(C)C (stereo not given in full) | 198 to 200 °C
50 | c1ccc(Sc2cc3cc4cc5ccccc5cc4cc3cc2Sc2ccccc2)cc1 | > 260 °C
51 | COCOCc1nc(-c2ccccc2)oc1COc1ccc(OCc2nc(-c3ccccc3)oc2C)cc1 | 74 to 75 °C
52 | CCOC(=O)c1cccc(NC(=O)NC2C(=O)N(CC34CC5CC(CC(C5)C3)C4)c3ccccc3N(c3ccccc3)C2=O)c1 (stereo not given) | 220 to 221 °C
53 | Cc1ccc(S(=O)(=O)NCC[C@@H](NS(=O)(=O)c2ccc(C)cc2)C(=O)NO)cc1 | 152 to 153 °C
54 | O=C(CCC(=O)N1CCC(c2ccc(Cl)cc2)CC1)c1ccc2c(c1)CCN(C(=O)c1ccccc1)CC2 | 158 to 160 °C
55 | Cc1cc(O)c(Cc2ccc(C(C)C)cc2)c(C)c1NC(=O)CC(C)(C)C | 202 to 203 °C
56 | O=C(O)CCNC(=O)C(=Cc1ccccc1)CS | 80 °C
57 | CS(=O)(=O)c1ccc(-c2nn3cc(C(F)(F)F)oc3c2-c2ccc(F)cc2)cc1 | 186 to 189 °C
58 | CCCCc1cc2cc(C(=O)OCC)ccn2c1 | 47 to 48 °C
59 | O=C(O)c1ccc(-c2ccc(-c3cc(-c4ccc(-c5ccc(C(=O)O)cc5)cc4)cc(-c4ccc(-c5ccc(C(=O)O)cc5)cc4)c3)cc2)cc1 | 326 °C
60 | CCOC(=O)c1c(C(F)(F)F)nc(C(F)(F)F)c(C(=O)OCC)c1C | 55 to 58 °C
61 | COc1cccc(S(=O)(=O)n2c(COC(C)(C)C(=O)O)cc3nc(Cl)ccc32)c1 | 130 °C
62 | CCCCCCCCCCCc1ccc(-c2ccc(OCC(C)CC)nn2)cc1 (stereo not given) | 78 °C
63 | CCN1CCN(c2ccc(C(=O)OC)cc2)CC1 | 102 to 104 °C
64 | COC(=O)C(/C(=C\c1ccccc1)C(N)=O)=C(\C)c1cc(OC)c(OC)c(OC)c1 | 118 to 120 °C
65 | CON=C(CBr)c1ccc(Cl)cc1 | 57 to 60 °C
66 | CCCCC1=C(C=Cc2ccc(N(CCCC)CCCC)cc2OC)CC(C)(C)CC1=CC=CC1=C(C#N)C(=C(C#N)C#N)OC1(c1ccccc1)C(F)(F)F (stereo not given) | 109 to 113 °C
67 | Oc1ccc(-c2cc3cc(O)ccc3o2)c(-c2ccc(OCc3ccccc3)cc2)c1 | 186 to 187 °C
68 | Cc1ccccc1S(=O)(=O)NC(=O)c1csc(Cc2ccc3oc(-c4nc(C(C)(C)C)cs4)cc3c2)n1 | 201 to 203 °C
69 | Cc1ccc(NC(=S)NCCCO)c(C)c1 | 90 to 93 °C
70 | CCC(=O)c1c(C#N)nn(-c2c(Cl)cc(C(F)(F)F)cc2Cl)c1N | 167 to 169 °C
71 | CCNC(=O)Nc1cccc(-c2cccc(OC)c2)c1 | 152 to 154 °C
72 | Clc1cnc(Br)c(Cl)c1 | 37 to 38 °C
73 | C#CC(OC)c1cc(C(C)(C)C)cc(C(C)(C)C)c1OC (stereo not given) | 68 to 70 °C
74 | NC(=O)c1ccc(-c2ccnc(C(=O)N(O)Cc3ccccc3)c2)cc1 | 155 to 160 °C

Row | Compound | melting point
75 | CN(c1ccc(OC(F)(F)F)cc1)c1cc(C(F)(F)F)nc(NN=Cc2ccc(OC(F)(F)F)cc2)n1 | 180 to 182 °C
76 | O=C1CC2c3ccccc3CCN2C2CCCCC12 (stereo not given) | 112 to 140 °C
77 | CCS(=O)(=O)c1nn2c(-c3ccc(OC)cc3)nnc2c2ccccc12 | 210 to 213 °C
78 | CCOC(=O)/C=C1\C[C@@H]2c3cccc4[nH]cc(c34)C[C@H]2N(C)C1 | 170 to 171 °C
79 | CC(O)CCCCCCCc1ccc(O)c(O)c1 (stereo not given) | 58 to 61 °C
80 | CSc1ccc(-c2ccc(C(CCC(=O)O)=NO)cc2)cc1 | 162 to 164 °C
81 | O=C(Nc1c(C(O)(C(F)(F)F)C(F)(F)F)ccc2ccccc12)c1ccc(OC(F)(F)F)cc1 | 179 to 180 °C
82 | CC(=O)N=NCc1ccc(OCCCCCOc2ccc(C(=O)N(C(C)C)C(C)C)c(Cl)c2)cc1 | 59 to 61 °C
83 | COC(=O)Cc1ccc2nc(C(F)(F)F)cc(Cl)c2c1 | 108 to 109 °C
84 | COc1ccc(COCc2nc(C(C)C)c(Sc3cc(Cl)cc(Cl)c3)n2CC(C)=O)cc1 | 87 to 90 °C
85 | CC(C)Cc1ccc(CCCCc2cc3c(s2)NC(=S)CN=C3c2ccccc2Cl)cc1 | 133 to 135 °C
86 | OCCOc1cc2ccccc2cc1OCCOc1ccccc1 | 119 to 120 °C
87 | O=c1cnc2c(NCCO)nc(SCc3cccc(Cl)c3F)nc2[nH]1 | 195 to 196 °C
88 | CCC(=O)c1c[nH]c2cc(C(=O)OC)ccc12 | 229 to 231 °C
89 | CCOCCOC(=O)Nc1c(C#N)cnn1-c1ccc(Cl)c(Cl)c1Cl | 122 to 124 °C
90 | CONC(=N)c1ccc(-c2ccc(-c3ccc(C(=N)NOC)nc3)o2)cc1 | 235 to 237 °C
91 | O=[N+]([O-])c1cc2c(Nc3cccc(Cl)c3)ncnc2cc1F | 223 to 225 °C
92 | CC(C)(C)OC(=O)C(Cc1ccc(Cl)cc1)N=C(c1ccccc1)c1ccccc1 (stereo not given) | 102 to 103 °C
93 | CCNc1cc(O)c(C)cc1Cl | 205 °C
94 | COC(=O)c1ccccc1C=Nc1ccc(Oc2ccc(C(F)(F)F)cc2Cl)cc1O | 82 to 85 °C
95 | COC(=O)Cn1c(C)cc(Cc2ccsc2)c(NC(=O)OCc2ccccc2)c1=O | 127 to 128 °C
96 | O=S1(=O)N=C(n2ccnc2)Nc2cc(F)c(F)cc21 | 264 to 266 °C
97 | CCOc1cc(Cc2cnc(N)nc2N)cc(OCC)c1C(O)CS(C)(=O)=O (stereo not given) | 205 to 206 °C
98 | NC(=O)CC1(c2ccccc2)C(=O)Nc2ccc(Cl)cc21 (stereo not given) | 247 to 248 °C
99 | CCCCn1nc(C)c(CO)c1Cc1ccc(-c2ccccc2-c2nnn[nH]2)cc1 | 120 to 126 °C
100 | C=CCOc1nc2cc(OC)c(OC)cc2c2ncnn12 | 189 to 191 °C
